Assay results from ChEMBL document CHEMBL1156195, “Antimicrobial selaginellin derivatives from Selaginella pulvinata” (Bioorg Med Chem Lett, 2010).
Values after ≈ are worked out from the molar mass of the structure shown. Active and inactive are the calls of the source. The calls are words filed in the database; no cut-off is given here.

Assays:
Candida albicans = experiment: Antifungal activity against Candida albicans; assay type: functional, organism-based
Staphylococcus aureus = experiment: Antibacterial activity against Staphylococcus aureus; assay type: functional, organism-based

Row | IC50 (Staphylococcus aureus) | MIC (Staphylococcus aureus) | Compound | IC50 (Candida albicans)
1 | – | – | Clc1ccc(COC(Cn2ccnc2)c2ccc(Cl)cc2Cl)c(Cl)c1.O=[N+]([O-])O (centres undefined) [MICONAZOLE NITRATE] | < 1.2 µg/mL
2 | Not Active | inactive | CCOc1ccc(C(=C2C=CC(=O)C=C2)c2c(-c3ccc(O)cc3)ccc(CO)c2C#Cc2ccc(O)cc2)cc1 [SELAGINELLIN D] | 5.3 µg/mL (≈ 9.8 µM)
